Data as given in US20140243302A1, “BRIDGED BICYCLIC COMPOUNDS FOR THE TREATMENT OF BACTERIAL INFECTIONS” (priority 2011, published 2014).
Converted amounts (≈) assume the structure as drawn.

Test system: Staphylococcus aureus Smith
Assay: MIC assay, modified agar dilution (CLSI), S. aureus Smith
Assay type: cell-based
Settings: agar dilution, 35° C., 16-20 hr, lowest concentration that completely inhibited growth; for MIC: Staphylococcus aureus, read-out: S_aureus_Smith_WT_MIC
Procedure: The potency of antibacterial agents was measured using the Minimal Inhibitory Concentration (MIC) assay. The assay measures the ability of test agents to inhibit the growth of bacteria on agar-containing medium.
The bacterial test strains used were exemplified by Staphylococcus aureus Smith, Enterococcus faecium A2373, Streptococcus pneumoniae IID554, and Escherichia coli ATCC 25922. All strains were maintained as frozen stocks held at −80° C. in skim milk. Other bacterial test strains are well known to those skilled in the art and can be used for testing.
Mueller Hinton Agar (MHA BBL; Becton Dickinson and Company, Sparks, Md.) was used as the medium. MHA was supplemented with 5% defibrinated horse blood (DHB; Nippon Biotest Laboratories inc.) to support the growth of S. pneumoniae and E. faecium.
MIC values were determined using a modified agar dilution procedure described by the Clinical and Laboratory Standards Institute (CLSI; Methods for Dilution Antimicrobial Susceptibility Tests for Bacteria That Grow Aerobically; Approved Standard—Eighth Edition. CLSI document M07-A8 [ISBN 1-56238-689-1]. Clinical and Laboratory Standards Institute, 940 West Valley Road, Suite 1400, Wayne, Pa. 19087-1898 USA, 2009).
Stock solutions (6.4 mgmL) of test compounds were prepared in 100% ultrapure dimethyl sulfoxide (DMSO; source) on the day of the assay. Subsequent serial dilutions were performed to generate solutions with concentrations ranging from 6.4 to 0.0002 mgmL in 100% DMSO.
Agar medium containing test compound was prepared by adding the dilutions of antimicrobial solution to molten MHA at a temperature of 45-50° C. The agar and antimicrobial solution were mixed thoroughly, poured into petri dishes, and allowed to solidify at room temperature. The final concentration of test compounds in the MHA medium ranged from 128 to 0.001 μg/mL with two-fold dilutions. MHA plates lacking antibacterial compound were used for growth controls.
Prior to susceptibility testing, the bacterial isolates were removed from frozen storage, thawed at room temperature, sub-cultured to MHA medium and incubated overnight at 35° C. S. pneumoniae and E. faecium were subcultured on MHA supplemented with 5% DHB at 35° C. with […]. Colonies from each plate were suspended in normal saline. This suspension was adjusted to the turbidity of a 0.5 McFarland standard, 1-2×10^8 colony forming units (CFU) per mL, and diluted 100-fold to 1-2×10^6 CFUmL.
Suspensions of bacterial cultures were applied to the surface of MHA plates containing test compound as well as to a growth control plate lacking test compound using an inoculum-replicating device with 4 mm pins. The replicating device applied 5 uL of the bacterial suspension such that each spot contained approx. 1×10^4 CFU. Plates were dried for about 40 min and incubated at 35° C. for 16-20 hr prior to scoring.

Compound | MIC | further results
O=C1COc2ccc(CNC34CCC(C(O)Cn5c(=O)ccc6ncc(F)cc65)(CC3)OC4)nc2N1 (single isomer, unassigned) [Example 55b, 6-((1-(2-(7-fluoro-2-oxo-1,5-naphthyridin-1(2H)-yl)-1-hydroxyethyl)-2-oxabicyclo[2.2.2]octan-4-ylamino)methyl)-2H-pyrido[3,2-b][1,4]oxazin-3(4H)-one] |  | S_aureus_Smith_WT_MIC: 0.250 µg/mL
COc1ccc2ncc(F)c(CCC34CCC(NCc5ccc6c(n5)NC(=O)C(C)O6)(CC3)CO4)c2n1.Cl (single isomer, unassigned) [Example 100a, 6-((1-(2-(3-Fluoro-6-methoxy-1,5-naphthyridin-4-yl)ethyl)-2-oxabicyclo[2.2.2]octan-4-ylamino)methyl)-2-methyl-2H-pyrido[3,2-b][1,4]oxazin-3(4H)-one Hydrochloride] |  | S_aureus_Smith_WT_MIC (Hydrochloride): 0.250 µg/mL
COc1ccc2ncc(F)c(CCC34CCC(NCc5ccc6c(n5)NC(=O)C(C)O6)(CC3)CO4)c2n1.Cl (single isomer, unassigned) [Example 100b, 6-((1-(2-(3-Fluoro-6-methoxy-1,5-naphthyridin-4-yl)ethyl)-2-oxabicyclo[2.2.2]octan-4-ylamino)methyl)-2-methyl-2H-pyrido[3,2-b][1,4]oxazin-3(4H)-one Hydrochloride] |  | S_aureus_Smith_WT_MIC (Hydrochloride): 0.0630 µg/mL
COc1ccc2ncc(F)c(CC(O)C34CCC(NCc5cc6c(cn5)OCCO6)(CC3)CO4)c2n1 (single isomer, unassigned) [Example 132, 1-(4-((2,3-Dihydro-[1,4]dioxino[2,3-c]pyridin-7-yl)methylamino)-2-oxabicyclo[2.2.2]octan-1-yl)-2-(3-fluoro-6-methoxy-1,5-naphthyridin-4-yl)ethanol] | 0.031 µg/mL (≈ 0.0624 µM) | 
COc1ccc2ncc(F)c(CC(O)C34CCC(NCc5cc6ccccc6n(C)c5=O)(CC3)CO4)c2n1 (single isomer, unassigned) [Example 133, 3-((1-(2-(3-Fluoro-6-methoxy-1,5-naphthyridin-4-yl)-1-hydroxyethyl)-2-oxabicyclo[2.2.2]octan-4-ylamino)methyl)-1-methylquinolin-2(1H)-one] | 1 µg/mL (≈ 1.93 µM) | 
COc1ccc2ncc(F)c(CC(O)C34CCC(NCc5cc6c(cn5)OCC(=O)N6)(CC3)CO4)c2n1 (single isomer, unassigned) [Example 134, 7-((1-(2-(3-Fluoro-6-methoxy-1,5-naphthyridin-4-yl)-1-hydroxyethyl)-2-oxabicyclo[2.2.2]octan-4-ylamino)methyl)-1H-pyrido[3,4-b][1,4]oxazin-2(3H)-one] | 0.063 µg/mL (≈ 0.124 µM) | 
COc1ccc2ncc(F)c(CC(O)C34CCC(NCc5nc6c(cc5F)OCC(=O)N6)(CC3)CO4)c2n1 (single isomer, unassigned) [Example 135, 7-Fluoro-6-((1-(2-(3-fluoro-6-methoxy-1,5-naphthyridin-4-yl)-1-hydroxyethyl)-2-oxabicyclo[2.2.2]octan-4-ylamino)methyl)-2H-pyrido[3,2-b][1,4]oxazin-3(4H)-one] | 0.031 µg/mL (≈ 0.0588 µM) | 
COc1ccc2ncc(F)c(C(C)C(O)C34CCC(NCc5ccc6c(n5)NC(=O)CO6)(CC3)CO4)c2n1 (single isomer, unassigned) [Example 151a, 6-((1-(2-(3-Fluoro-6-methoxy-1,5-naphthyridin-4-yl)-1-hydroxypropyl)-2-oxabicyclo[2.2.2]octan-4-ylamino)methyl)-2H-pyrido[3,2-b][1,4]oxazin-3(4H)-one] |  | S_aureus_Smith_WT_MIC: 32.0 µg/mL
COc1ccc2ncc(F)c(C(C)C(O)C34CCC(NCc5ccc6c(n5)NC(=O)CO6)(CC3)CO4)c2n1 (single isomer, unassigned) [Example 151b, 6-((1-(2-(3-Fluoro-6-methoxy-1,5-naphthyridin-4-yl)-1-hydroxypropyl)-2-oxabicyclo[2.2.2]octan-4-ylamino)methyl)-2H-pyrido[3,2-b][1,4]oxazin-3(4H)-one] |  | S_aureus_Smith_WT_MIC: 4.00 µg/mL
COc1ccc2ncc(F)c(C[C@@H](O)C34CCC(NCc5cc6c(cn5)OCCO6)(CC3)CC4)c2n1.Cl (single isomer, unassigned) [Example 200] | 0.75 µg/mL | 
COc1ccc2ncc(F)c(C[C@H](O)C34CCC(NCc5cc6c(cn5)OCCO6)(CC3)CC4)c2n1.Cl (single isomer, unassigned) [Example 201] | 0.06 µg/mL | 
N#Cc1cnc2ccc(=O)n(CC(O)C34CCC(NCc5cc6c(cn5)OCCO6)(CC3)CO4)c2c1 (single isomer, unassigned; enantiomer a) [Example 159, 5-(2-(4-((2,3-Dihydro-[1,4]dioxino[2,3-c]pyridin-7-yl)methylamino)-2-oxabicyclo[2.2.2]octan-1-yl)-2-hydroxyethyl)-6-oxo-5,6-dihydro-1,5-naphthyridine-3-carbonitrile (Enantiomer A)] | 2 µg/mL (≈ 4.09 µM) | 
N#Cc1cnc2ccc(=O)n(CC(O)C34CCC(NCc5ccc6c(n5)NC(=O)CO6)(CC3)CO4)c2c1 (single isomer, unassigned; enantiomer a) [Example 160, 5-(2-Hydroxy-2-(4-((3-oxo-3,4-dihydro-2H-pyrido[3,2-b][1,4]oxazin-6-yl)methylamino)-2-oxabicyclo[2.2.2]octan-1-yl)ethyl)-6-oxo-5,6-dihydro-1,5-naphthyridine-3-carbonitrile (Enantiomer A)] | 0.25 µg/mL (≈ 0.497 µM) | 
COC(=O)C1CC1COc1ccc2ncc(F)c(CCC34CCC(NCc5ccc6c(n5)NC(=O)CO6)(CC3)CO4)c2n1 (single isomer, unassigned; enantiomer a) [Example 227, Methyl 247-Fluoro-8-(2-(4-((3-oxo-3,4-dihydro-2H-pyrido[3,2-b][1,4]oxazin-6-yl)methylamino)-2-oxabicyclo[2.2.2]octan-1-yl)ethyl)-1,5-naphthyridin-2-yloxy)methyl)cyclopropanecarboxylate (Enantiomer A)] | 0.063 µg/mL (≈ 0.106 µM) | 
N#Cc1cnc2ccc(=O)n(CC(O)C34CCC(NCc5cc6c(cn5)OCCO6)(CC3)CO4)c2c1 (single isomer, unassigned; enantiomer b) [Example 161, 5-(2-(4-((2,3-Dihydro-[1,4]dioxino[2,3-c]pyridin-7-yl)methylamino)-2-oxabicyclo[2.2.2]octan-1-yl)-2-hydroxyethyl)-6-oxo-5,6-dihydro-1,5-naphthyridine-3-carbonitrile (Enantiomer B)] |  | S_aureus_Smith_WT_MIC: 2.00 µg/mL
COC(=O)[C@H]1C[C@H]1COc1ccc2ncc(F)c(CCC34CCC(NCc5ccc6c(n5)NC(=O)CO6)(CC3)CO4)c2n1 (single isomer, unassigned; enantiomer b) [Example 228, Methyl 2-((7-Fluoro-8-(2-(4-((3-oxo-3,4-dihydro-2H-pyrido[3,2-b][1,4]oxazin-6-yl)methylamino)-2-oxabicyclo[2.2.2]octan-1-yl)ethyl)-1,5-naphthyridin-2-yloxy)methyl)cyclopropanecarboxylate (Enantiomer B)] | 0.25 µg/mL (≈ 0.423 µM) | 
COc1ccc2nccc(CCC34CCC(NCc5ccc6c(n5)NC(=O)CO6)(CC3)CC4)c2n1.Cl [Example 1, 6-((4-(2-(6-Methoxy-1,5-naphthyridin-4-yl)ethyl)bicyclo[2.2.2]octan-1-ylamino)methyl)-2H-pyrido[3,2-b][1,4]oxazin-3(4H)-one Hydrochloride] | 0.031 µg/mL | 
CCOC(=O)c1cnc2ccc(OC)nc2c1CCC12CCC(NCc3ccc4c(n3)NC(=O)CO4)(CC1)CC2 [Example 2, Ethyl 6-Methoxy-4-(2-(4-((3-oxo-3,4-dihydro-2H-pyrido[3,2-b][1,4]oxazin-6-yl)methylamino)bicyclo[2.2.2]octan-1-yl)ethyl)-1,5-naphthyridine-3-carboxylate] | 0.125 µg/mL (≈ 0.229 µM) | 
COc1ccc2ncc(N)c(CCC34CCC(NCc5ccc6c(n5)NC(=O)CO6)(CC3)CC4)c2n1.Cl [Example 3, 6-((4-(2-(3-Amino-6-methoxy-1,5-naphthyridin-4-yl)ethyl)bicyclo[2.2.2]octan-1-ylamino)methyl)-2H-pyrido[3,2-b][1,4]oxazin-3(4H)-one Hydrochloride] | 0.25 µg/mL | 
COc1ccc2ncc(F)c(CCC34CCC(NCc5ccc6c(n5)NC(=O)CO6)(CC3)CC4)c2n1.Cl [Example 4, 6-((4-(2-(3-Fluoro-6-methoxy-1,5-naphthyridin-4-yl)ethyl)bicyclo[2.2.2]octan-1-ylamino)methyl)-2H-pyrido[3,2-b][1,4]oxazin-3(4H)-one Hydrochloride] | 0.016 µg/mL | 
